The values that follow are results of earlier work, collected in US20230184643A1, “METHOD FOR MEASURING OR IDENTIFYING A COMPONENT OF INTEREST IN SPECIMENS” (SHIMADZU CORPORATION, priority 2020, published 2023).

Marks after values point to notes of the source that are not given here.

The conditions of the series: Table 4.1; Drug bank accessed November 2020.

Consider `CN[C@@H]1[C@@H](O)[C@@H](O[C@@H]2[C@@H](O)[C@H](O[C@H]3OC(CN)=CC[C@H]3N)[C@@H](N)C[C@H]2N)OC[C@]1(C)O` [Sisomicin], for which the LogP is listed as −4.3^a.
